Like-named read-outs stand apart in the source and are kept apart here.
Key:
[1] = test system: lymphocytes from donor blood and from the blood of an asthmatic patient; assay: Intracellular free [Ca2+]i by flow cytometry with fluo-3/AM; type: cell-based, human; settings: in either stimulated or untreated cells
Description: Intracellular free [Ca^2+]i content was monitored by flow cytometry using the Ca^2+-sensitive dye fluo-3/AM (Molecular Probe Inc., OR)(Minta, Kao and Tsien, 1989, J. Biol. Chem. 264:8171-8178). Cells obtained from donor blood and those from the blood of an asthmatic patient were further washed twice in DMEM and resuspended to a concentration of 10^7 cells/ml. Fluo-3/AM (1 mM) was prepared in DMSO augmented with the nonionic surfactant Pluronic F-127 (Wyandotte Corp., Mich.). Aliquots of fluo-3/AM stock solution were added to cell suspensions in DMEM/HEPES at a final concentration of 3 μM (loading buffer). Loading was allowed to proceed for 30 min. at 37° C. and continued for 1 hour at 23° C. with gentle agitation. Cells were then adjusted to desired concentrations using fresh DMEM/HEPES, supplemented with 2% horse serum. Autofluorescence was eliminated by setting the threshold sensitivity above the levels obtained in absence of dye. Fluorescence intensity data was collected from 5000 single cells and values were expressed as arbitrary fluorescence units. Prodrug-1 (1 mM) was prepared in DMSO and added when appropriate at a final concentration of 3 μM to the cells for 5 min. prior to calcium treatment.
Lymphocytes from donor blood and from the blood of an asthmatic patient were exposed to prodrug-1. […]

[2] = test system: post-pilocarpine-seizure-cardiopathy (PSCP); assay: Post-pilocarpine-seizure cardiopathy (PSCP) model, in vivo ECG; parameters: species or system Sprague-Dawley rats
Description: (§1) Adult (2-3 months) male Sprague-Dawley rats were used for all experiments. They were fed with standard briquette chow with water ad libitum and were maintained in standard plastic cages (4-5 individuals in each cage) under natural illumination. A pilocarpine-scopolamine epileptic status model (pilocarpine) was performed as described earlier. In a group of 23 rats, pilocarpine was administered i.p. in different doses which ranged from 100 to 400 mg/kg body weight (B/W) for different periods of time; a second group of 17 rats was treated with DP16 prior to pilocarpine administration, wherein the DP16 was injected for 30 min before pilocarpine in the next dose range and its effect was investigated in the ensuing periods.
(§2) In vivo ECG (Birtcher-Cardio-Tracer, model 375, USA) in three standard leads were recorded under ketamine anesthesia (3.3 mg/ky Imalgene 100, Rhone Merieux, France and 7 mg/kg Rompun, Bayer Leverkusen, Germany, i.m.). […] In the case of constant PP the volume of effluent flow was measured on electron balance (Precisa 1000C-3000D, Switzerland). […] Direct ECG were recorded from ventricular apex (lead 1), auriculum (lead 2) and in-between (lead 3). The coronary vessel's perfusion resistance (CVPR) was calculated in arbitrary units as follows: PP/flow/heart weight. […]

[3] = test system: metrazol induced seizures (myoclonic jerks); assay: Metrazol minimal seizures test; type: in vivo, BALB/c mice; settings: 30 min before Metrazol s.c.
Description: Testing of DP16 as a possible antiepileptic drug was performed on 3-4 week old male BALB/c mice (18-27 g). Animals were maintained on an adequate diet and allowed free access to food and water except briefly during the experimental period. Animals were separately housed for one hour in transparent plastic cages before treatment and during the experimental period. Drugs were dissolved in normal saline with injection volume adjusted to 0.01 ml/g of body weight. DP16 was administered i.p., in doses ranging from 0.1 to 300 μg/kg: (0.1 μg/kg: n=10, 5 μg/kg: n=10, 25 μg/kg: n=20, 75 μg/kg: n=20, 150 μg/kg: n=20, and 300 μg/kg: n=10 animals respectively). Control animals received injections i.p. of normal saline. DP16 or saline administration followed in 30 minutes by Metrazol ([…], s.c.). […] Absence or relative delay of myoclonic jerks (MJ) in the experimental group was considered as indication of possible antiepileptic activity. Data were subjected to chi-square analysis with the computer statistic package “StatViewII”,

rat hearts = assay: Ex-vivo rat heart Low-flow-Reperfusion Langendorff model
Source text: Low-flow Reperfusion Langendorff's heart (Meely and Rovetto, 1975, METHODS IN ENZYMOLOGY, v39:43-60) is an established ex vivo model of a human ischemic heart. A severe decrease in perfusion pressure (PP) below 20 mm Hg (low-flow period) causes sinus bradycardia culminating by stable AV block (“AVB”; 10 out of 11 hearts) frequently followed by ventricular arythmia. Restoration of perfusion pressure causes paroxysmal tachyarrhythmia followed by irreversable ventricular fibrillation (VF).
The experiments were preformed ex vivo on 39 rat hearts. Heart electrical activity and perfusion pressure were stable following 15 min., each. Perfusion buffer was supplemented with DP16 (1.0 μg/l) following the stable AV block during low flow perfusion and during the Reperfusion period.
The experimental protocol documented by FIG. 16 included periods of Normal Coronary Flow (FIG. 6, NF, panel 1) followed by Low-Flow (LF) and then by Normal flow-reperfusion (NF-Rp) (panels 2 and 3, respectively).
The experiments were performed by addition of DP16 (0.5-500 μg/l) to the perfusion buffer after AV block establishment.

[4] = test system: isolated hearts from pilocarpine-treated rats; assay: Perfusion-Hypoxia-Reperfusion isolated Langendorff heart from pilocarpine-treated rats; parameters: species or system Sprague-Dawley rats; settings: treatment prior to pilocarpine; initial and final periods of perfusion
Description: as §1, §2

[5] = test system: rat model of permanent cerebral ischemia; assay: Bilateral permanent cerebral ischemia model (common carotid artery ligation); type: in vivo; settings: rats, i.p. 0.001-0.1 mg/kg following artery ligation; p<0.01; FIG. 2
Description: Bilateral ligation of the common carotid arteries is the simplest and most direct approach for inducing permanent partial ischemia. In the rats there is almost 64% mortality 24 h later. The causes of mortality are largely brain swelling (edema) and focal lesions (infarcts). Permanent partial global is achieved by isolation of the common carotid artery through an incision on the ventral surface of the neck. The salivary glands are moved laterally and the carotid sheath exposed. Both the vagus and sympathetic nerves are separated from the common carotid artery, which is then permanently ligated. Sprague-Dawley rats (250-300 g) were anesthetized with halothane or by intramuscular injection of 0.1 ml Ketamine (0.1 g/ml, Parke Davis UK) and 0.1 ml Rompun (2%, Bayer, FRG) per 300 g body weight. DP16 was administered intraperitoneally (i.p., 0.001-0.1 mg/kg) when appropriate following the artery ligation. Every experimental and control group included 14 male rats. Statistical analysis was performed according to t-test criteria.

[6] = test system: pilocarpine induced epileptic seizures; assay: Pilocarpine based model of experimental epilepsy; type: in vivo, rats
Description: Acetylcholine, acetylcholinesterase inhibitors and acetylcholine analogues are effective epileptogenic agents when applied intracerebrally or systematically (see ref. in Leite et al., Neurosci. & Biobeh. Rev., 1990, 14:511-17). […] Systemic injections of the pilocarpine, a potent muscarinic cholinergic agonist, are capable of producing a sequence of behavioral alterations including stirring spells, facial automatisms and motor limbic seizures, that develop over 1-2 hours and build progressively into limbic status and following by general status epilepticus.
Immediately following injection of pilocarpine, akinesia, ataxic lurching, facial automatism and […] dominated the animals' behavior. Further development of epileptic events is dose-dependent. Administration of pilocarpine in doses of 300-350 mg/kg causes appearance of limbic seizures with rearing, forelimb clonus, salivation, intense masticatory jaw movements and falling. Motor limbic seizures commenced after 20-30 min., recurred every 2-8 min and lead to status epilepticus. Increase of the dose of pilocarpine up-to 400mg/kg abolished limbic seizures and after 15-25 min of initial behavioral alterations causes fatal general tonic-clonic convulsions. We consider this dose as the LD100.

[7] = test system: isoproterenol induced myocardial damage; assay: Isoproterenol induced myocardial damage; type: in vivo, Sprague-Dawley rats
Description: Administration of the potent β-adrenoreceptor agonist isoproterenol (ISO) is commonly accepted model of experimental myocardial pathology. The cardioprotective effect of DP16 was tested on 82 Sprague-Dawley female rats weighing 250-350 g. Myocardial damage was induced in rats by two consecutive injections of ISO ([…], s.c.). When appropriate, the injections of ISO were followed in 30 and 180 minutes by DP16 (0.01 μg/kg, i.p.). The effect of DP16 was estimated by ECG analysis and determination of serum glutamate-oxaloacetate transaminase (SGOT) and lactatdehydrogenase (LDH) activity. Mortality of control rats after ISO intervention was 17.1±5.9% (7 out of 41). […] Pathological signs on ECG were aggravated during the experimental period. […] Administration of DP16 decreased mortality in 2 cases (2 out of 30). […] Pathological displacement of the ST-segment was found only on 28 and 40% of ECG (in 24 and in 48 hours following ISO respectively).

[8] = test system: metrazol induced convulsions and death; assay: Metrazol anticonvulsant test (prevention of convulsions and/or death); type: in vivo, mice; settings: for ED100: mice, one hour before s.c. metrazol (80 mg/kg), 30 minutes observation, TVA16 i.p.
Description: A test sample of TVA16 was administered i.p. (0.01 to 100 mg/kg) to a group of three mice, one hour before an s.c. dose of metrazol (80 mg/kg). An effective dose was the amount which prevented convulsions (scored 2 points per animal) and/or death (scored 1 point per animal) in the subsequent 30 minutes.

O=C(O)CN(CC(=O)O)c1ccccc1OCCOc1ccccc1N(CC(=O)O)CC(=O)O [BAPTA, 1,2-bis-(2-aminophenoxy)ethane-N,N,N′,N′-tetraacetic acid]
reducing the intracellular calcium levels [1]: ineffective

CCCCCCCCCCCCCCCC(=O)OCC(COP(=O)([O-])OCC[N+](C)(C)C)OC(=O)CN(CC(=O)O)c1ccccc1OCCOc1ccccc1N(CC(=O)O)CC(=O)O (stereo not drawn) [DP16]
ECG alterations in the phase of stabilization ([2]; 3-14 days after pilocarpine, p<0.01 vs not protected): prevents the appearance of ECG alterations | normalized electrical activity (ECG) at the acute stage of PSCP ([2]; DP16 prior to pilocarpine, 24h after pilocarpine): 5 out of 7 | response to metrazol (myoclonic jerks) ([3]; 0.1 μg/kg i.p.): same response to metrazol as control | response to metrazol (myoclonic jerks) ([3]; 5 to 300 μg/kg i.p., p<0.001): significant protective effect | complete restoration of AV synchronism (rat hearts; 1.0 μg/l in perfusion buffer after AV block establishment): 11 out of 16 | decreased level of AVB and prevented ventricular fibrillation (rat hearts; 1.0 μg/l, additional cases of the 16 experiments): 5 cases | efficiency in resolving atrio-ventricular blockade and preventing ventricular fibrillation compared to BAPTA and BAPTA-AM (rat hearts; FIG. 7): much better efficiency | full restoration of the sinus rhythm during reperfusion (rat hearts; reperfusion period): 11 out of 16 | coronary vessel's perfusion resistance (CVPR) regulation [4]: prevents damage of CVPR regulation | decrease of post-ischemic mortality compared with control [5]: 250% | dose range with dose dependent therapeutic effects ([6]; FIG. 4, reduction in fatal seizures): 10^−8 to 10^−5 mg/kg | effect on death and epileptiform manifestations ([6]; administered prior to pilocarpine): prevented death in the animals and decreased epileptiform manifestations | estimated therapeutic index (ET) ([6]; pilocarpine 400 mg/kg, rats, 0.5 mg/kg/5×10^−7 mg/kg): 1×10^6 | percentage of animals exhibiting abnormal level of SGOT and LDH activity ([7]; 0.01 μg/kg i.p.): substantially decreased | mortality ([7]; 0.01 μg/kg i.p. 30 and 180 minutes after ISO, control 7 out of 41): 2 out of 30 | pathological displacement of the ST-segment, share of ECG ([7]; 24 hours following ISO): 28% | pathological displacement of the ST-segment, share of ECG ([7]; 48 hours following ISO): 40%

C[C@]12N[C@H](Cc3ccccc31)c1ccccc12 [MK-801]
ED100 ([8]; Mus musculus, read-out: ED100): 0.5 mg/kg

CCCCCCCCCCCCCCCC(=O)OCC(COP(=O)([O-])OCC[N+](C)(C)C)OC(=O)C(CCC)CCC (stereo not drawn) [TVA16]
dose response curve compared to valproic acid itself ([8]; FIG. 8, doses as mg of valproic acid per kg body weight): improvement | potency relative to sodium valproate ([8]; from Table 1): more than 500 × | ED100 [8]: 20 mg/kg

CN1C(=O)CN=C(c2ccccc2)c2cc(Cl)ccc21 [diazepam]
ED100 ([8]; Mus musculus, read-out: ED100): 2.5 mg/kg

CCC1(c2ccccc2)CCC(=O)NC1=O (stereo not drawn) [glutethimide]
ED100 ([8]; Mus musculus, read-out: ED100): 150 mg/kg

CCCC(C)(COC(N)=O)COC(N)=O [meprobamate]
ED100 ([8]; Mus musculus, read-out: ED100): 200 mg/kg

CCC1(c2ccccc2)C(=O)NC(=O)NC1=O [phenobarbital]
ED100 ([8]; Mus musculus, read-out: ED100): 50 mg/kg

CC[C@@H]1C(=O)OC[C@@H]1Cc1cncn1C [pilocarpine, reference compound]
LD100 (fatal general tonic-clonic convulsions) ([6]; rats): 400 mg/kg

Source: US6355629B2, “Prodrugs with enhanced penetration into cells” (D-Pharm Ltd., priority 1993, dated 2002)
